From ChEMBL document CHEMBL4813944 (Eur J Med Chem, 2021)
The source made the active and inactive calls. The rule behind the calls is not given here.

Tests used:
[1] = Cytotoxicity against human SH-SY5Y cells assessed as cell viability at 0.1 uM measured after 24 hrs by calcein-AM staining based fluorescence analysis; settings: read-out: Activity
[2] = Cytotoxicity against human SH-SY5Y cells assessed as cell viability at 1 uM measured after 24 hrs by calcein-AM staining based fluorescence analysis; settings: read-out: Activity
[3] = Cytotoxicity against human SH-SY5Y cells assessed as cell viability at 10 uM measured after 24 hrs by calcein-AM staining based fluorescence analysis; settings: read-out: Activity
SH-SY5Y [4] = test: Neuroprotective activity against salsolinol-induced neurotoxicity in human SH-SY5Y cells assessed as cell viability at 1 uM measured after 24 hrs by calcein-AM staining based fluorescence analysis (reference value: 70.49 +/-0.51%); type: functional; settings: read-out: Activity
SH-SY5Y [5] = test: Neuroprotective activity against salsolinol-induced neurotoxicity in human SH-SY5Y cells assessed as reduction in cell death at 0.1 to 1 uM measured after 24 hrs by PI staining based analysis; type: functional; settings: dose 0.1-1 µM
SH-SY5Y [6] = test: Neuroprotective activity against glutamate-induced neurotoxicity in human SH-SY5Y cells assessed as cell death at 10 uM measured after 24 hrs by PI staining based assay (reference value: 100%); type: functional
SH-SY5Y [7] = test: Inhibition of glutamate-induced oxidative stress in human SH-SY5Y cells assessed as superoxide radical formation at 10 uM measured after 4 hrs by DHE staining based fluorescence spectrophotometry (reference value: 100%); type: functional; set-up: scale not given: the % may be the effect or the level left
SH-SY5Y [8] = test: Inhibition of glutamate-induced apoptosis in human SH-SY5Y cells assessed as caspase 3/7 activity at 10 uM incubated for 1 hr using Ac-DEVD-AMC as substrate by fluorescence analysis (reference value: 100%); type: functional; set-up: scale not given: the % may be the effect or the level left
SH-SY5Y [9] = test: Inhibition of glutamate-induced oxidative stress in human SH-SY5Y cells assessed as reduction in superoxide radical formation at 10 uM measured after 4 hrs by DHE staining based fluorescence microscopy; type: functional, cell-based
SH-SY5Y [10] = test: Neuroprotective activity against salsolinol-induced neurotoxicity in human SH-SY5Y cells assessed as cell viability at 0.5 uM measured after 24 hrs by calcein-AM staining based fluorescence analysis (reference value: 70.49 +/-0.51%); type: functional; settings: read-out: Activity
SH-SY5Y [11] = test: Neuroprotective activity against salsolinol-induced neurotoxicity in human SH-SY5Y cells assessed as cell death at 0.5 uM measured after 24 hrs by PI staining based analysis (reference value: 100%); type: functional
[12] = Inhibition of salsolinol-induced mPTP opening in human SH-SY5Y cells assessed as fold change in fluorescence intensity at 0.5 uM measured after 24 hrs by calcein AM/CoCl2 based fluorescence microscopic analysis (reference value: 0.49 +/-0.02); type: functional
SH-SY5Y [13] = test: Inhibition of glutamate-induced apoptosis in human SH-SY5Y cells assessed as caspase 3/7 activity at 0.5 uM incubated for 1 hr using Ac-DEVD-AMC as substrate by fluorescence analysis (reference value: 100%); type: functional; set-up: scale not given: the % may be the effect or the level left

| Compound | viability at 24 h, 0.1 µM [1] | viability at 24 h, 1 µM [2] | viability at 24 h, 10 µM [3] | also measured |
| --- | --- | --- | --- | --- |
| C=C(Cn1cc(-c2cccnc2)nn1)[C@@H]1CC[C@]2(C(=O)O)CC[C@]3(C)[C@H](CC[C@@H]4[C@@]5(C)CC[C@H](OC(C)=O)C(C)(C)[C@@H]5CC[C@]43C)[C@@H]12 | 106% | 124% | 57.6% | viability at 1 µM (SH-SY5Y [4]): 84.3%; Activity (SH-SY5Y [5]): inactive |
| C=C(C(=O)O)[C@@H]1CC[C@]2(COC(C)=O)CC[C@]3(C)[C@H](CC[C@@H]4[C@@]5(C)CC[C@H](OC(C)=O)C(C)(C)[C@@H]5CC[C@]43C)[C@@H]12 | 102% | 102% | 11.6% |  |
| CC(=O)N(O)CCCCCNC(=O)CCC(=O)N(O)CCCCCNC(=O)CCC(=O)N(O)CCCCCN [DEFEROXAMINE] |  |  |  | Activity (SH-SY5Y [6]): 79.5%; Activity (SH-SY5Y [7]): 87.2%; Activity (SH-SY5Y [8]): 77.4%; inhibition (SH-SY5Y [9]): inactive |
| CC(=O)OC[C@H]1O[C@@H](n2cc(CO)nn2)[C@H](OC(C)=O)[C@@H](OC(C)=O)[C@H]1OC(C)=O | 109% | 107% | 100% |  |
| C/C=C/C[C@@H](C)[C@@H](O)[C@H]1C(=O)N[C@@H](CC)C(=O)N(C)CC(=O)N(C)[C@@H](CC(C)C)C(=O)N[C@@H](C(C)C)C(=O)N(C)[C@@H](CC(C)C)C(=O)N[C@@H](C)C(=O)N[C@H](C)C(=O)N(C)[C@@H](CC(C)C)C(=O)N(C)[C@@H](CC(C)C)C(=O)N(C)[C@@H](C(C)C)C(=O)N1C [CYCLOSPORINE] |  |  |  | viability at 0.5 µM (SH-SY5Y [10]): 99.3%; Activity (SH-SY5Y [11]): 74.5%; fold change (FC) [12]: 0.67; Activity (SH-SY5Y [13]): 89.1% |
| COC(=O)[C@]12CCC(C)(C)C[C@@H]1[C@H]1C=C[C@@H]3[C@@]4(C)CC(SC#N)C(=O)C(C)(C)[C@@H]4CC[C@@]3(C)[C@]1(C)CC2 (some centres not stated) | 100% | 107% | 99.2% |  |
